Results reported in ChEMBL document CHEMBL1142520, “Potent, selective and orally bioavailable dihydropyrimidine inhibitors of Rho kinase (ROCK1) as potential therapeutic agents for cardiovascular diseases” (J Med Chem, 2008).

Legend:
[1] = target: Rho-associated protein kinase 1 (Homo sapiens, UniProt Q13464); experiment: Inhibition of human recombinant ROCK1 kinase expressed in insect Sf9 cells by SPA
[2] = Oral bioavailability in Sprague-Dawley rat at 1.2 mg/kg; format: ADME, organism-based; conditions: in vivo
[3] = target: Cytochrome P450 3A4 (Homo sapiens, UniProt P08684); experiment: Inhibition of CYP3A4; format: ADME
Cytochrome P450 3A4, sequence (P08684 whole entry): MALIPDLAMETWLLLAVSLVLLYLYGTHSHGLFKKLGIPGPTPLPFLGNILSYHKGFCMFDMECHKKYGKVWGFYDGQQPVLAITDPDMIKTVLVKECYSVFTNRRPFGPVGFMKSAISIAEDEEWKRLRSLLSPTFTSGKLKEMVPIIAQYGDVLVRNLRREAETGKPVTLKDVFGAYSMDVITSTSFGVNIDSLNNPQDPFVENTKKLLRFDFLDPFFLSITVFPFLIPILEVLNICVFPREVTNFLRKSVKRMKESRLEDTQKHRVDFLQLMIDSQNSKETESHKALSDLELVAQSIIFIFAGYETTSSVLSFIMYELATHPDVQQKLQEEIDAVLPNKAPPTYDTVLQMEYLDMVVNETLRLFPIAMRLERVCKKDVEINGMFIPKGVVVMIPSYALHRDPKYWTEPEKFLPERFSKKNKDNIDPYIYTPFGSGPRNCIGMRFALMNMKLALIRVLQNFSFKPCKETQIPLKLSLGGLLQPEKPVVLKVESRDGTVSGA

[4] = tested on: Rattus norvegicus; experiment: (§1) Half life in Sprague-Dawley rat at 1.1 mg/kg, iv; format: ADME, organism-based; set-up: dose 1.1 mg/kg, route intravenous; conditions: in vivo
[5] = target: Cytochrome P450 2D6 (Homo sapiens, UniProt P10635); experiment: Inhibition of CYP2D6; format: ADME
Cytochrome P450 2D6, sequence (P10635 whole entry): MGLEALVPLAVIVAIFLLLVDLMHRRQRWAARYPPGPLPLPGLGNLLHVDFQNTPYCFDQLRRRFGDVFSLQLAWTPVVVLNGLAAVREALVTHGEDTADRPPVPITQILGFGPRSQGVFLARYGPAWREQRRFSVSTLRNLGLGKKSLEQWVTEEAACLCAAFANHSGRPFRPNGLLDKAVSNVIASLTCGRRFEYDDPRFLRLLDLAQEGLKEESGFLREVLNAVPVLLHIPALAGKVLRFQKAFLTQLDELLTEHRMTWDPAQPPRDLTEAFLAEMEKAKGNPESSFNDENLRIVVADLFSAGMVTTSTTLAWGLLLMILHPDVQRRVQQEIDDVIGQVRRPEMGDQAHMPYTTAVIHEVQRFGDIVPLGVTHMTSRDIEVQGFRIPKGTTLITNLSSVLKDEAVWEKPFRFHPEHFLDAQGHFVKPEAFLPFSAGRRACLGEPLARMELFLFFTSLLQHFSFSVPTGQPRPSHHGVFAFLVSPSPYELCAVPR

[6] = Oral bioavailability in Sprague-Dawley rat at 1.1 mg/kg; format: ADME, organism-based; conditions: in vivo
[7] = tested on: Rattus norvegicus; experiment: (§2) Volume of distribution at steady state in Sprague-Dawley rat at 1.1 mg/kg, iv; format: ADME, organism-based; set-up: dose 1.1 mg/kg, route intravenous; conditions: in vivo
[8] = target: Cytochrome P450 2C9 (Homo sapiens, UniProt P11712); experiment: Inhibition of CYP2C9; format: ADME
Cytochrome P450 2C9, sequence (P11712 whole entry): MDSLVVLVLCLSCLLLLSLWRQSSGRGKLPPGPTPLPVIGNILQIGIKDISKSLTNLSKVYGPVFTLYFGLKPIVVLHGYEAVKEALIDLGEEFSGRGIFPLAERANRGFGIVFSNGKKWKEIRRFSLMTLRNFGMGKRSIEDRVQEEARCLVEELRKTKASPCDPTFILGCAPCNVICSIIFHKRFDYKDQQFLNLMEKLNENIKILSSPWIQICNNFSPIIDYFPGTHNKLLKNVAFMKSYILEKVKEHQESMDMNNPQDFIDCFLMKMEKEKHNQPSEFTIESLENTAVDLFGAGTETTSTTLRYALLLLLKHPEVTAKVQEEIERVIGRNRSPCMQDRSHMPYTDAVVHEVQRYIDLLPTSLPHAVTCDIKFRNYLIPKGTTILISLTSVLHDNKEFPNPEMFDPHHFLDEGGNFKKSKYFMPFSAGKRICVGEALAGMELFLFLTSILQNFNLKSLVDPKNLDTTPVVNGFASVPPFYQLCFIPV

[9] = Half life in Sprague-Dawley rat at 1.2 mg/kg, iv; format: ADME, organism-based; set-up: dose 1.2 mg/kg, route intravenous; conditions: in vivo
[10] = Volume of distribution at steady state in Sprague-Dawley rat at 1.2 mg/kg, iv; format: ADME, organism-based; set-up: dose 1.2 mg/kg, route intravenous; conditions: in vivo, read-out: Vdss
[11] = Clearance in Sprague-Dawley rat at 1.2 mg/kg, iv; format: ADME, organism-based; set-up: dose 1.2 mg/kg, route intravenous; conditions: in vivo
[12] = Oral bioavailability in Sprague-Dawley rat at 1.8 mg/kg; format: ADME, organism-based; conditions: in vivo
[13] = target: Ribosomal protein S6 kinase alpha-1 (Homo sapiens, UniProt Q15418); experiment: Inhibition of RSK1
Ribosomal protein S6 kinase alpha-1, sequence (Q15418 whole entry): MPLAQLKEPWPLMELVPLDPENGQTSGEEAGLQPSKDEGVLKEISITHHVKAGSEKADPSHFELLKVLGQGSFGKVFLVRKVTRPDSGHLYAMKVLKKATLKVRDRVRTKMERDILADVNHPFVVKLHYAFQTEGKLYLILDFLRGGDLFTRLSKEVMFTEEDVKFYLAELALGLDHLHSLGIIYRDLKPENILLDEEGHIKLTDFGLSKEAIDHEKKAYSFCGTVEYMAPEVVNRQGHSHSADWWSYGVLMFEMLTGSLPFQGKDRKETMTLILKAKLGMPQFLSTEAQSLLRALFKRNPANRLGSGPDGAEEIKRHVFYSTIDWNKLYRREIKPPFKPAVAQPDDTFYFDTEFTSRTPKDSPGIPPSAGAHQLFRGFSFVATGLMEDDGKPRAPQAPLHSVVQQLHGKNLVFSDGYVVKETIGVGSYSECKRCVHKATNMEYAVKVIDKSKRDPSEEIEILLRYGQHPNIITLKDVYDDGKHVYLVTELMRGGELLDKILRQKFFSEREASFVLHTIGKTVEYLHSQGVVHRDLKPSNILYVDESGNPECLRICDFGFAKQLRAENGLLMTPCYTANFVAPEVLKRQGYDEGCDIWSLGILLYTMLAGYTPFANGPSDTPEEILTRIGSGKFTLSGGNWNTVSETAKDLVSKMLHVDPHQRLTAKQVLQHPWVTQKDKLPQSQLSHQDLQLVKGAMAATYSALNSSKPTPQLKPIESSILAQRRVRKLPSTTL

[14] = tested on: Aorta; experiment: Inhibition of phenylephrine-induced aortic ring contraction in Sprague-Dawley rat; format: functional, tissue-based
[15] = Half life in Sprague-Dawley rat at 1.8 mg/kg, iv; format: ADME, organism-based; set-up: dose 1.8 mg/kg, route intravenous; conditions: in vivo
[16] = target: Ribosomal protein S6 kinase beta-1 (Homo sapiens, UniProt P23443); experiment: Inhibition of p70S6K
Ribosomal protein S6 kinase beta-1, sequence (P23443 whole entry): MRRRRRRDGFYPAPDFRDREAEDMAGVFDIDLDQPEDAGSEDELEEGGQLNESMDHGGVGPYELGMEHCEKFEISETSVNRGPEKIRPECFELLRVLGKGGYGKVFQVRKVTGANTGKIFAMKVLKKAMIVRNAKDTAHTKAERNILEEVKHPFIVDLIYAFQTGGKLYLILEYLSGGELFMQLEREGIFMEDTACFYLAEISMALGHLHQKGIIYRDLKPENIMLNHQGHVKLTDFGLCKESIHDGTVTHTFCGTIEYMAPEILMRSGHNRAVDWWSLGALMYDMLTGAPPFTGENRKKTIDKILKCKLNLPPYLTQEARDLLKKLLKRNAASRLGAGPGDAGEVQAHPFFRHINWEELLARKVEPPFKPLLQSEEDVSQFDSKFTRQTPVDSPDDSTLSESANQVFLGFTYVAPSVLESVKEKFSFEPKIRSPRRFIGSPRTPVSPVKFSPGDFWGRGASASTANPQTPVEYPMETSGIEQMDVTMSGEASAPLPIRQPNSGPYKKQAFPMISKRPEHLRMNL

[17] = Volume of distribution at steady state in Sprague-Dawley rat at 1.8 mg/kg, iv; format: ADME, organism-based; set-up: dose 1.8 mg/kg, route intravenous; conditions: in vivo, read-out: Vdss
[18] = Clearance in Sprague-Dawley rat at 1.8 mg/kg, iv; format: ADME, organism-based; set-up: dose 1.8 mg/kg, route intravenous; conditions: in vivo
[19] = as §1; format: ADME, organism-based; set-up: dose 1.1 mg/kg, route intravenous; conditions: Sprague-Dawley, in vivo
[20] = as §2; format: ADME, organism-based; set-up: dose 1.1 mg/kg, route intravenous; conditions: Sprague-Dawley, in vivo, read-out: Vdss
[21] = Clearance in Sprague-Dawley rat at 1.1 mg/kg, iv; format: ADME, organism-based; set-up: dose 1.1 mg/kg, route intravenous; conditions: in vivo
[22] = Oral bioavailability in monkey; format: ADME, organism-based, Macaca mulatta; conditions: rhesus monkey, in vivo
[23] = Half life in monkey; format: ADME, organism-based, Macaca mulatta; conditions: rhesus monkey, in vivo
[24] = tested on: Rattus norvegicus; experiment: Decrease in mean arterial pressure in conscious spontaneous hypertensive rat model at 30 mg/kg, po
[25] = Volume of distribution at steady state in Sprague-Dawley rat at 1.3 mg/kg, iv; format: ADME, organism-based; set-up: dose 1.3 mg/kg, route intravenous; conditions: in vivo, read-out: Vdss
[26] = Clearance in Sprague-Dawley rat at 1.3 mg/kg, iv; format: ADME, organism-based; set-up: dose 1.3 mg/kg, route intravenous; conditions: in vivo
[27] = Half life in Sprague-Dawley rat at 1.3 mg/kg, iv; format: ADME, organism-based; set-up: dose 1.3 mg/kg, route intravenous; conditions: in vivo

Rho-associated protein kinase 1, sequence (Q13464 whole entry): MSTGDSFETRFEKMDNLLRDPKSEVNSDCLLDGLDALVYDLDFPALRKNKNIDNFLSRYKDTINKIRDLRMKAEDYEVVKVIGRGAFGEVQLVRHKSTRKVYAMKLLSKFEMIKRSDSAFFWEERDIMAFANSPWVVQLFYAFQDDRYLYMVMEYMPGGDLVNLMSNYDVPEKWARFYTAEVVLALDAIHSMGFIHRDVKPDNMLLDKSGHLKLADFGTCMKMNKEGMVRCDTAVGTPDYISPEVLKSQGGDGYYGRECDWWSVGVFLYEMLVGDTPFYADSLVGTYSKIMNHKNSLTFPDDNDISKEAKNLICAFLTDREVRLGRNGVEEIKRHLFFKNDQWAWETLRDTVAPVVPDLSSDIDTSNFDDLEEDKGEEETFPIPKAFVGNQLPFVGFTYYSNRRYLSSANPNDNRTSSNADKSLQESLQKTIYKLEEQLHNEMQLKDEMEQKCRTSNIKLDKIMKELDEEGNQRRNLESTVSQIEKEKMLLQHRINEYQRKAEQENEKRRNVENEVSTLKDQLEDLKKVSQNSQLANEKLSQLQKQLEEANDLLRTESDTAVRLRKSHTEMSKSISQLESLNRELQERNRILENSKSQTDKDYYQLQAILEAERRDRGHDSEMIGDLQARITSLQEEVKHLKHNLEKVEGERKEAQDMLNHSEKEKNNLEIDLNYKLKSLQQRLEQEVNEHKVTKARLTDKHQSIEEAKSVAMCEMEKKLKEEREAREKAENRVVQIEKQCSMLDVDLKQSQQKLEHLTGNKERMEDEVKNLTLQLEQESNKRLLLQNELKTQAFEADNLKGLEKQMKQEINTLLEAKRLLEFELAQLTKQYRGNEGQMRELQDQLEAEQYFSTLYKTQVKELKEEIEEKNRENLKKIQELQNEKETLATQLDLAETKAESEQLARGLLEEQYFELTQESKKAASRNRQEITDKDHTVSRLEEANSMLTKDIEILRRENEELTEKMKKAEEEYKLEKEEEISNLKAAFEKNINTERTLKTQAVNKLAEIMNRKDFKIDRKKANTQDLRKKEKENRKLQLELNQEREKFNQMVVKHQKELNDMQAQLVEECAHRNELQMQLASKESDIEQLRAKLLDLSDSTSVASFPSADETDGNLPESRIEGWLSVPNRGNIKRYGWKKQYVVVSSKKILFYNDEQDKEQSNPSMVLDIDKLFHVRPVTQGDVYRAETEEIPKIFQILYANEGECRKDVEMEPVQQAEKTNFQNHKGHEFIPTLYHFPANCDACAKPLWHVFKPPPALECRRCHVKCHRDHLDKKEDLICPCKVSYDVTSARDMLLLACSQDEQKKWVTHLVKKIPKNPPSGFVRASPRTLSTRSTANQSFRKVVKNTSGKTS

SMILES: CC1=C(C(=O)Nc2ccc3[nH]ncc3c2)C(c2ccc(F)cc2)N=C(c2cccc(C)c2)N1 (configuration not stated)
- IC50 [1]: 129 nM

SMILES: COc1ccc(C2=NC(c3ccc(S(C)(=O)=O)cc3)C(C(=O)Nc3ccc4[nH]ncc4c3)=C(C)N2)cc1 (configuration not stated)
- IC50 [1]: 150 nM

SMILES: CC1=C(C(=O)Nc2ccc3[nH]ncc3c2)C(c2ccc(F)cc2)N=C(c2ccncc2)N1 (configuration not stated)
- IC50 [1]: 8 nM
- bioavailability [2]: 0%

SMILES: CC1=C(C(=O)Nc2ccc3[nH]ncc3c2)C(c2ccc(F)cc2)N=C(c2cnccn2)N1 (configuration not stated)
- IC50 [1]: 105 nM

SMILES: CC1=C(C(=O)Nc2ccc3[nH]ncc3c2)C(c2ccc(Cl)cc2F)N=C(c2ccnc(Cl)c2)N1 (configuration not stated)
- IC50 [3]: 5500 nM
- IC50 [1]: 4 nM
- t1/2 [4]: 1.03 h
- IC50 [5]: 5700 nM
- bioavailability [6]: 7%
- Vdss [7]: 1.6 L/kg

SMILES: COc1cc(C2=NC(c3ccc(Cl)cc3F)C(C(=O)Nc3ccc4[nH]ncc4c3)=C(C)N2)ccn1 (configuration not stated)
- IC50 [3]: 4300 nM
- IC50 [1]: 2 nM
- t1/2 [4]: 0.567 h
- IC50 [5]: 3700 nM
- bioavailability [6]: 21%
- Vdss [7]: 2 L/kg

SMILES: CC1=C(C(=O)Nc2ccc3[nH]ncc3c2)C(c2ccc(F)cc2)N=C(c2cccc(C(F)(F)F)c2)N1 (configuration not stated)
- IC50 [1]: 288 nM

SMILES: COc1ccc(C2=NC(c3ccc(Cl)cc3F)C(C(=O)Nc3ccc4[nH]ncc4c3)=C(C)N2)cn1 (configuration not stated)
- IC50 [3]: 2500 nM
- IC50 [1]: 3 nM
- IC50 [5]: 1200 nM
- bioavailability [6]: 27%

SMILES: COc1ccc(C2=NC(c3ccc(S(N)(=O)=O)cc3)C(C(=O)Nc3ccc4[nH]ncc4c3)=C(C)N2)cc1 (configuration not stated)
- IC50 [1]: 68 nM

SMILES: CC1=C(C(=O)Nc2cc3cn[nH]c3cc2F)C(c2ccc(Cl)cc2F)N=C(c2ccnc(C)c2)N1 (configuration not stated)
- IC50 [1]: 10 nM

SMILES: CC1=C(C(=O)Nc2ccc3[nH]ncc3c2)C(c2ccc(F)cc2)N=C(c2ccc(C)cc2)N1 (configuration not stated)
- IC50 [1]: 101 nM

SMILES: CC1=C(C(=O)Nc2ccc3[nH]ncc3c2)C(c2ccc(F)cc2)N=C(c2ccc(C)c(F)c2)N1 (configuration not stated)
- IC50 [1]: 104 nM

SMILES: CC1=C(C(=O)Nc2ccc3[nH]ncc3c2)C(c2ccc(F)cc2)N=C(c2ccccn2)N1 (configuration not stated)
- IC50 [1]: 180 nM

SMILES: CC1=C(C(=O)Nc2ccc3[nH]nc(C)c3c2)C(c2ccc(Cl)cc2F)N=C(c2ccnc(Cl)c2)N1 (configuration not stated)
- IC50 [1]: 15 nM

SMILES: COc1cc(C2=NC(c3ccc(Cl)cc3F)C(C(=O)Nc3cc4cn[nH]c4cc3F)=C(C)N2)ccn1 (configuration not stated)
- IC50 [3]: 5300 nM
- IC50 [1]: 6 nM
- IC50 [8]: 8400 nM
- t1/2 [4]: 0.767 h
- IC50 [5]: 2100 nM
- bioavailability [6]: 53%
- Vdss [7]: 2.5 L/kg

SMILES: COc1ccc(C2=NC(c3ccc(F)cc3)C(C(=O)Nc3ccc4[nH]ncc4c3)=C(C)N2)cc1 (configuration not stated)
- half-life [9]: 2.82 h
- IC50 [1]: 46 nM
- Vd [10]: 5.1 L/kg
- clearance [11]: 55 mL/min/kg
- bioavailability [2]: 35%

SMILES: CC1=C(C(=O)Nc2ccc3[nH]ncc3c2)C(c2ccc(F)cc2)N=C(c2ccccc2)N1 (configuration not stated)
- bioavailability [12]: 16%
- IC50 [3]: 350 nM
- IC50 [13]: 5300 nM
- IC50 [1]: 105 nM
- IC50 [8]: 640 nM
- IC50 [14]: 1300 nM
- half-life [15]: 1 h
- IC50 [16]: 4500 nM
- IC50 [5]: 90 nM
- Vd [17]: 0.8 L/kg
- clearance [18]: 15 mL/min/kg

SMILES: COc1ccc(C2=NC(C)C(C(=O)Nc3ccc4[nH]ncc4c3)=C(C)N2)cc1 (configuration not stated)
- IC50 [1]: 863 nM

SMILES: COc1ccc(C2=NC(c3ccc(C(F)(F)F)cc3F)C(C(=O)Nc3ccc4[nH]ncc4c3)=C(C)N2)cc1 (configuration not stated)
- IC50 [1]: 26 nM

SMILES: COc1ccc(C2=NC(c3ccc(Cl)cc3F)C(C(=O)Nc3ccc4[nH]ncc4c3)=C(C)N2)cc1 (configuration not stated)
- IC50 [3]: 2700 nM
- IC50 [13]: 510 nM
- IC50 [1]: 5 nM
- IC50 [14]: 200 nM
- half-life [19]: 1.13 h
- IC50 [16]: 2100 nM
- IC50 [5]: 200 nM
- bioavailability [6]: 58%
- Vd [20]: 6.46 L/kg
- clearance [21]: 108 mL/min/kg

SMILES: CC1=C(C(=O)Nc2ccc3[nH]ncc3c2)C(c2ccc(F)cc2)N=C(c2ccc(Cl)cc2)N1 (configuration not stated)
- IC50 [1]: 129 nM

SMILES: CCOc1cc(C2=NC(c3ccc(Cl)cc3F)C(C(=O)Nc3cc4cn[nH]c4cc3F)=C(C)N2)ccn1 (configuration not stated)
- IC50 [1]: 11 nM

SMILES: CC1=C(C(=O)Nc2cc3cn[nH]c3cc2F)C(c2ccc(Cl)cc2F)N=C(c2ccnc(Cl)c2)N1 (configuration not stated)
- bioavailability [22]: 19%
- IC50 [13]: 398 nM
- IC50 [1]: 6 nM
- IC50 [8]: 2500 nM
- IC50 [14]: 256 nM
- t1/2 [4]: 1.75 h
- IC50 [16]: 1000 nM
- IC50 [5]: 5200 nM
- half-life [23]: 2.2 h
- bioavailability [6]: 49%
- Vdss [7]: 2 L/kg
- Activity [24]: 25 mmHg

SMILES: CC1=C(C(=O)Nc2ccc3[nH]ncc3c2)C(c2ccc(F)cc2)NC(=O)N1 (configuration not stated) [GSK-180736A]
- IC50 [14]: 760 nM
- Vd [25]: 2.2 L/kg
- clearance [26]: 49 mL/min/kg
- half-life [27]: 0.7 h

SMILES: CC1=C(C(=O)Nc2ccc3[nH]ncc3c2)C(c2ccc(F)cc2)N=C(c2ccc(C(F)(F)F)nc2)N1 (configuration not stated) [GSK-317354A]
- IC50 [1]: 75 nM
